Columns and labels:
Assay in all cases: Test C greenhouse herbicide test, pre- and postemergence
Assay type in all cases: in vivo
[1] = tested on: ragweed (common ragweed, Ambrosia elatior)
Outline: (§1)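 Percent-control ratings (0 none, 100 complete) came from visual comparison with controls held alongside in the greenhouse for 13–15 d. Treatments covered soil application at sowing and foliar application to young plants 2–18 cm tall.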

[2] = tested on: waterhemp (common waterhemp, Amaranthus rudis)
Outline: as §1

[3] = tested on: lambsquarters (Chenopodium album)
Outline: as §1

[4] = tested on: crabgrass, large (large crabgrass, Digitaria sanguinalis)
Outline: as §1

corn (Zea mays) = tested on: corn (Zea mays)
Outline: as §1

[5] = tested on: velvetleaf (Abutilon theophrasti)
Outline: as §1

[6] = tested on: barnyardgrass (Echinochloa crus-galli)
Outline: as §1

[7] = tested on: johnsongrass (Sorghum halepense)
Outline: as §1

[8] = tested on: pigweed (Amaranthus retroflexus)
Outline: as §1

[9] = tested on: ryegrass, Italian (Italian ryegrass, Lolium multiflorum)
Outline: as §1

soybean (Glycine max) = tested on: soybean (Glycine max)
Outline: as §1

[10] = tested on: nutsedge, yellow (yellow nutsedge, Cyperus esculentus)
Outline: as §1

[11] = tested on: blackgrass (Alopecurus myosuroides)
Outline: as §1

[12] = tested on: morningglory (Ipomoea coccinea)
Outline: as §1

[13] = tested on: wheat (winter wheat, Triticum aestivum)
Outline: as §1

[14] = Postemergence, 31 g ai/ha, scale 0 to 100 (0 no effect, 100 complete control)
[15] = Postemergence, 62 g ai/ha, 0 to 100 scale (0 no effect, 100 complete control)
[16] = Postemergence, 250 g ai/ha, scale 0 to 100, 0 no effect, 100 complete control, 13 to 15 d
[17] = Preemergence, 31 g ai/ha, scale 0 to 100, 0 is no effect, 100 is complete control
[18] = Preemergence, 62 g ai/ha, scale 0 to 100, 0 is no effect, 100 is complete control
[19] = Preemergence, 125 g ai/ha, scale 0 to 100, 0 is no effect, 100 is complete control
[20] = Preemergence, 250 g ai/ha, scale 0 to 100, 0 no effect, 100 complete control
[21] = postemergence, 125 g ai/ha, scale 0 to 100, 0 no effect, 100 complete control

CC(=O)Oc1c(C)nn(C)c(=O)c1-c1c(C)sc2ccc(C(F)(F)F)cc12 [Compound 132]
Plant response rating, Ragweed [1, 14]: 65 | Ragweed plant response rating [1, 15]: 95 | Plant response rating, Ragweed [1, 16]: 98 | Plant response rating, Ragweed [1, 17]: 70 | Plant response rating, Ragweed [1, 18]: 85 | Plant response rating, Ragweed [1, 19]: 95 | Ragweed plant response rating [1, 20]: 100 | Ragweed plant response rating [1, 21]: 95 | Plant response rating, Waterhemp [2, 14]: 40 | Waterhemp plant response rating [2, 15]: 60 | Plant response rating, Waterhemp [2, 16]: 75 | Plant response rating, Waterhemp [2, 17]: 90 | Plant response rating, Waterhemp [2, 18]: 85 | Plant response rating, Waterhemp [2, 19]: 95 | Waterhemp plant response rating [2, 20]: 98 | Waterhemp plant response rating [2, 21]: 80 | Plant response rating, Lambsquarters [3, 14]: 90 | Lambsquarters plant response rating [3, 15]: 90 | Plant response rating, Lambsquarters [3, 16]: 100 | Plant response rating, Lambsquarters [3, 17]: 50 | Plant response rating, Lambsquarters [3, 18]: 60 | Plant response rating, Lambsquarters [3, 19]: 85 | Lambsquarters plant response rating [3, 20]: 100 | Lambsquarters plant response rating [3, 21]: 100 | Plant response rating, Crabgrass, Large [4, 14]: 15 | Crabgrass, Large plant response rating [4, 15]: 15 | Plant response rating, Crabgrass, Large [4, 16]: 25 | Plant response rating, Crabgrass, Large [4, 17]: 0 | Plant response rating, Crabgrass, Large [4, 18]: 0 | Plant response rating, Crabgrass, Large [4, 19]: 10 | Crabgrass, Large plant response rating [4, 20]: 40 | Crabgrass, Large plant response rating [4, 21]: 10 | Plant response rating, Corn (corn (Zea mays); [14]): 0 | Corn plant response rating (corn (Zea mays); [15]): 5 | Plant response rating, Corn (corn (Zea mays); [16]): 10 | Plant response rating, Corn (corn (Zea mays); [17]): 0 | Plant response rating, Corn (corn (Zea mays); [18]): 0 | Plant response rating, Corn (corn (Zea mays); [19]): 0 | Corn plant response rating (corn (Zea mays); [20]): 10 | Corn plant response rating (corn (Zea mays); [21]): 5 | Plant response rating, Velvetleaf [5, 14]: 30 | Velvetleaf plant response rating [5, 15]: 40 | Plant response rating, Velvetleaf [5, 16]: 75 | Plant response rating, Velvetleaf [5, 17]: 60 | Plant response rating, Velvetleaf [5, 18]: 60 | Plant response rating, Velvetleaf [5, 19]: 90 | Velvetleaf plant response rating [5, 20]: 95 | Velvetleaf plant response rating [5, 21]: 65 | Plant response rating, Barnyardgrass [6, 14]: 15 | Barnyardgrass plant response rating [6, 15]: 30 | Plant response rating, Barnyardgrass ([6]; Postemergence, 125 g ai/ha, scale 0 to 100, 0 is no effect, 100 is complete control): 25 | Plant response rating, Barnyardgrass [6, 16]: 25 | Plant response rating, Barnyardgrass [6, 17]: 0 | Plant response rating, Barnyardgrass [6, 18]: 5 | Plant response rating, Barnyardgrass [6, 19]: 35 | Barnyardgrass plant response rating [6, 20]: 45 | Plant response rating, Johnsongrass [7, 14]: 0 | Johnsongrass plant response rating [7, 15]: 5 | Plant response rating, Johnsongrass [7, 16]: 10 | Plant response rating, Johnsongrass [7, 17]: 15 | Plant response rating, Johnsongrass [7, 18]: 10 | Plant response rating, Johnsongrass [7, 19]: 55 | Johnsongrass plant response rating [7, 20]: 25 | Johnsongrass plant response rating [7, 21]: 5 | Plant response rating, Pigweed [8, 14]: 50 | Pigweed plant response rating [8, 15]: 55 | Plant response rating, Pigweed [8, 16]: 65 | Plant response rating, Pigweed [8, 17]: 100 | Plant response rating, Pigweed [8, 18]: 100 | Plant response rating, Pigweed [8, 19]: 100 | Pigweed plant response rating [8, 20]: 100 | Pigweed plant response rating [8, 21]: 70 | Plant response rating, Ryegrass, Italian [9, 14]: 80 | Ryegrass, Italian plant response rating [9, 15]: 85 | Plant response rating, Ryegrass, Italian [9, 16]: 95 | Plant response rating, Ryegrass, Italian [9, 17]: 45 | Plant response rating, Ryegrass, Italian [9, 18]: 90 | Plant response rating, Ryegrass, Italian [9, 19]: 95 | Ryegrass, Italian plant response rating [9, 20]: 95 | Ryegrass, Italian plant response rating [9, 21]: 95 | Plant response rating, Soybean (soybean (Glycine max); [14]): 0 | Soybean plant response rating (soybean (Glycine max); [15]): 0 | Plant response rating, Soybean (soybean (Glycine max); [16]): 20 | Plant response rating, Soybean (soybean (Glycine max); [17]): 0 | Plant response rating, Soybean (soybean (Glycine max); [18]): 0 | Plant response rating, Soybean (soybean (Glycine max); [19]): 0 | Soybean plant response rating (soybean (Glycine max); [20]): 0 | Soybean plant response rating (soybean (Glycine max); [21]): 0 | Plant response rating, Nutsedge, Yellow [10, 14]: 30 | Nutsedge, Yellow plant response rating [10, 15]: 55 | Plant response rating, Nutsedge, Yellow [10, 16]: 85 | Plant response rating, Nutsedge, Yellow [10, 17]: 10 | Plant response rating, Nutsedge, Yellow [10, 18]: 35 | Plant response rating, Nutsedge, Yellow [10, 19]: 45 | Nutsedge, Yellow plant response rating [10, 20]: 75 | Nutsedge, Yellow plant response rating [10, 21]: 75 | Plant response rating, Blackgrass [11, 14]: 5 | Blackgrass plant response rating [11, 15]: 5 | Plant response rating, Blackgrass [11, 16]: 45 | Plant response rating, Blackgrass [11, 17]: 20 | Plant response rating, Blackgrass [11, 18]: 45 | Plant response rating, Blackgrass [11, 19]: 40 | Blackgrass plant response rating [11, 20]: 50 | Blackgrass plant response rating [11, 21]: 25 | Plant response rating, Morningglory [12, 14]: 65 | Morningglory plant response rating [12, 15]: 80 | Plant response rating, Morningglory [12, 16]: 98 | Plant response rating, Morningglory [12, 17]: 40 | Plant response rating, Morningglory [12, 18]: 65 | Plant response rating, Morningglory [12, 19]: 95 | Morningglory plant response rating [12, 20]: 90 | Morningglory plant response rating [12, 21]: 95 | Plant response rating, Wheat [13, 14]: 0 | Wheat plant response rating [13, 15]: 0 | Plant response rating, Wheat [13, 16]: 0 | Plant response rating, Wheat [13, 17]: 25 | Plant response rating, Wheat [13, 18]: 40 | Plant response rating, Wheat [13, 19]: 20 | Wheat plant response rating [13, 20]: 50 | Wheat plant response rating [13, 21]: 0

From patent US10597388B2, “Pyridazinone herbicides” (FMC CORPORATION, priority 2014, dated 2020)
